Test results taken from US8518973B2, “Compounds having 4-pyridylalkylthio group as a substituent” (Santen Pharmaceutical Co., Ltd., priority 2003, dated 2013).

tested on: VEGF-induced HUVEC growth; test: VEGF-induced HUVEC growth reaction evaluation system (cell growth inhibitory action test); type: cell-based; settings: Homo sapiens, 72 h, 20 μg/ml test compound solution added 5 μl per well (100 μl), VEGF solution 400 ng/ml 5 μl per well, three days, absorbance at 450 nm, read-out: Cell growth inhibition rate (%)
Procedure: Cell growth inhibitory action tests were carried out using a VEGF-induced HUVEC growth reaction evaluation system (HUVEC stands for human umbilical vein endothelial cells), which is one of widely-used methods of evaluating in vitro angiogenesis inhibitory effects of drugs.
As one of widely-used methods of evaluating angiogenesis inhibitory effects of drugs, a cell growth inhibitory action test using a VEGF-induced HUVEC growth reaction evaluation system was reported in Cancer Res., 59, 99-106(1999). According to the method described in the above-mentioned literature, cell growth inhibitory action tests of the present compounds were carried out, their cell growth inhibition rates were calculated, and angiogenesis inhibitory effects of the present compounds were evaluated using the obtained rates as indexes.
Each test compound was dissolved in dimethyl sulfoxide (hereinafter abbreviated as “DMSO”), and the obtained solution was diluted with commercially available phosphoric acid buffer solution (hereinafter abbreviated as “PBS”) to prepare a 20 μg/ml test compound solution.
HUVEC was suspended in a 0.5% fetal bovine serum (hereinafter abbreviated as “FBS”)-containing F12K medium to prepare a 2×10^4 cells/ml HUVEC suspension.
VEGF was dissolved in 0.1% bovine serum albumin-containing PBS, and the obtained solution was diluted with the 0.5% FBS-containing F12K medium to prepare a 400 ng/ml VEGF solution.
• 1) The HUVEC suspension was inoculated in each amount of 100 μl into each well of a 96-well plate coated with I type collagen (2×10^3 cells per well). • 2) One day after inoculation, the test compound solution was added in an amount of 5 μl per well. • 3) One hour after adding the test compound solution, the VEGF solution was added in an amount of 5 μl per well. • 4) Three days after adding the VEGF solution, cell counting kit-8(Dojin Chemical Co., Ltd.) was added in an amount of 10 μl per well. • 5) After three hours, the above-mentioned plate was attached to an absorptiometer (multi label counter ARVO), and absorbance at 450 nm of each well suspension (hereinafter referred to as “test compound suspension”) was measured. • 6) A test was carried out in the same manner as in 1) to 5) except that 1.0% DMSO was used instead of the test compound solution.
Incubation was carried out under conditions of 37° C., 5% carbon dioxide and 95% air in an incubator throughout the above-mentioned test steps.
Cell growth inhibition rates, which are indexes of angiogenesis inhibitory effects, were calculated by the following calculation equation.

Structure (SMILES)	inhibition at 20 µg/mL (stock) [%]
O=C(Nc1cccc(Cl)c1)c1ccccc1SCc1ccncc1 [1-90, N-(3-Chlorophenyl)-2-(4-pyridylmethylthio)benzamide]	100
Cc1ccc(NC(=O)c2cccnc2SCc2ccncc2)cc1Cl [1-78, N-(3-Chloro-4-methylphenyl)-2-(4-pyridylmethylthio)pyridine-3-carboxamide]	100
Cc1ccc(NC(=O)c2cccnc2SCc2cc[n+]([O-])cc2)cc1C [4-5, N-(3,4-Dimethylphenyl)-2-(1-oxopyridin-4-ylmethylthio)pyridine-3-carboxamide]	100
O=C(Nc1ccc2c(c1)CCC2)c1sccc1SCc1ccncc1 [1-283, N-(5-Indanyl)-3-(4-pyridylmethylthio)thiophene-2-carboxamide]	100
CC(Sc1ncccc1C(=O)Nc1cccc(Cl)c1)c1ccncc1 (stereo not drawn) [5-2, N-(3-Chlorophenyl)-2-[1-(4-pyridyl)ethylthio]pyridine-3-carboxamide]	96
CC(C)Oc1ccc(NC(=O)c2sccc2SCc2ccncc2)cc1 [1-246, N-(4-Isopropoxyphenyl)-3-(4-pyridylmethylthio)thiophene-2-carboxamide]	76
Cc1cc(C)cc(NC(=O)c2cccnc2SCc2ccnc(Cl)c2)c1 [1-226, 2-(2-Chloropyridin-4-ylmethylthio)-N-(3,5-dimethylphenyl)pyridine-3-carboxamide]	100
O=C(Nc1cccc(Cl)c1)c1sccc1SCc1ccncc1 [1-249, N-(3 Chlorophenyl)3-(4-pyridylmethylthio)thiophene-2-carboxamide]	100
Cc1cc(NC(=O)c2sccc2SCc2ccncc2)ccc1F [1-252, N-(4-Fluoro-3-methylphenyl)-3-(4-pyridylmethylthio)thiophene-2-carboxamide]	100
Cc1cccc(NC(=O)c2cscc2SCc2ccncc2)c1 [1-292, N-(3-Methylphenyl) 4 (4-pyridylmethylthio)thiophene-3 carboxamide]	100
O=C(Nc1cnc2ccccc2c1)c1cccnc1SCc1ccncc1 [1-20, 2-(4-Pyridylmethylthio)-N-(3-quinolyl)pyridine-3-carboxamide]	100
O=C(Nc1ccc(F)cc1F)c1cccnc1SCc1ccncc1 [1-70, N-(2,4-Difluorophenyl)-2-(4-pyridylmethylthio)pyridine-3-carboxamide]	58
O=C(Nc1ccc(Cl)cc1)c1cccnc1SCc1cc[n+]([O-])cc1 [4-1, N-(4-Chlorophenyl)-2-(1-oxopyridin-4-ylmethylthio)pyridine-3-carb oxamide]	93
O=C(Nc1ccc(OC(F)(F)F)cc1)c1sccc1SCc1ccncc1 [1-273, 3-(4-Pyridylmethylthio)-N-(4-trifluoromethoxyphenyl)thiophene-2-carboxamide]	100
COc1cc(OC)c(NC(=O)c2cccnc2SCc2ccncc2)cc1Cl [1-85, N-(5-Chloro-2,4-dimethoxyphenyl)-2-(4-pyridylmethylthio)pyridine-3-carboxamide]	95
O=C(Nc1ccc(OC(F)(F)F)cc1)c1cccnc1SCc1ccnc(F)c1 [1-214, 2-(2-Fluoropyridin-4-ylmethylthio)-N-(4-trifluoromethoxyphenyl)pyridine-3-carboxamide]	92
Cc1cccc(NC(=O)c2cccnc2SCc2cc[n+]([O-])cc2)c1 [4-3, N-(3-Methylphenyl)-2-(1-oxopyridin-4-ylmethylthio)pyridine-3-carboxamide]	100
CC(C)(C)c1ccc(NC(=O)c2sccc2SCc2ccncc2)cc1 [1-256, N-(4-tert-Butylphenyl)-3-(4-pyridylmethylthio)thiophene-2-carboxamide]	100
O=C(Nc1cc2ccccc2cn1)c1ccccc1SCc1ccncc1 [1-209, N-(3-Isoquinolyl)-2-(4-pyridylmethylthio)benzamide]	99
O=C(Nc1ccc(F)c(F)c1)c1sccc1SCc1ccncc1 [1-269, N-(3,4-Difluorophenyl)-3-(4-pyridylmethylthio)thiophene-2-carboxamide]	53

Structure (SMILES)	inhibition at 20 µg/mL (stock) [%]
Cc1cc(C)cc(NC(=O)c2sccc2SCc2ccnc(Cl)c2)c1 [1-251, 3-(2-Chloropyridin-4-ylmethylthio)-N-(3,5-dimethylphenyl)thiophene-2-carboxamide]	77
COCCNC(=O)c1cc(CSc2ncccc2C(=O)Nc2cc(C)cc(C)c2)ccn1 [7-4, N-(3,5-Dimethylphenyl)-2-[2-(2-methoxyethylaminocarbonyl)pyridin-4-ylmethylthio]pyridine-3-carboxamide]	100
Cc1cc(C)cc(NC(=O)c2cccnc2SCc2ccnc(C(N)=O)c2)c1 [8-1, 2-(2-Carbamoylpyridin-4-ylmethylthio)-N-(3,5-dimethylphenyl)pyridine-3-carboxamide]	100
Cc1cc(C)cc(NC(=O)c2cccnc2SCc2ccnc(C#N)c2)c1 [1-236, 2-(2-Cyanopyridin-4-ylmethylthio)-N-(3,5-dimethylphenyl)pyridine-3-carboxamide]	100
CCCNC(=O)c1cc(CSc2ncccc2C(=O)Nc2cc(C)cc(C)c2)ccn1 [7-1, N-(3,5-Dimethylphenyl)-2(2-n-propylaminocarbonylpyridin-4-yl-methylthio)pyridine 3 carboxamide]	100
Cc1cc(C)cc(NC(=O)c2cccnc2SCc2ccnc(C(=O)O)c2)c1 [6-1, 2-(2-Carboxypyridin-4-ylmethylthio)-N-(3,5-dimethylphenyl)pyridine-3-carboxamide]	72
CSc1cc(CSc2ncccc2C(=O)Nc2cc(C)cc(C)c2)ccn1 [1-231, N-(3,5-Dimethylphenyl)-2-(2-methylthiopyridin-4-ylmethylthio)pyridine-3-carboxamide]	100
O=C(Nc1cccc(C(F)(F)F)c1)c1sccc1SCc1ccncc1 [1-276, 3-(4-Pyridylmethylthio)-N-(3-trifluoromethylphenyl)thiophene-2-carboxamide]	100
CCCc1ccc(NC(=O)c2cccnc2SCc2ccncc2)cc1 [1-49, N-(4-n-Propylphenyl)-2-(4-pyridylmethylthio)pyridine-3-carboxamide]	100
CC(C)Oc1ccc(NC(=O)c2cccnc2SCc2ccncc2)cc1 [1-55, N-(4-Isopropoxyphenyl)-2-(4-pyridylmethylthio)pyridine-3-carboxamide]	100
COc1cc(OC)c(NC(=O)c2ccccc2SCc2ccncc2)cc1Cl [1-102, N-(5-Chloro-2,4-dimethoxyphenl)-2-(4-pyridylmethylthio)benzamide]	55
Cc1cc(C)cc(NC(=O)c2ccsc2SCc2ccncc2)c1 [1-291, N-(3,5-Dimethylphenyl)-2-(4-pyridylmethylthio)thiophene-3-carboxamide]	100
COc1ccc(NC(=O)c2cccnc2SCc2ccncc2)cc1OC [1-72, N-(3,4-Dimethoxyphenyl)-2-(4-pyridylmethylthio)pyridine-3-carboxamide]	100
O=C(Nc1cnc2ccccc2c1)c1ccccc1SCc1ccncc1 [1-95, 2-(4-Pyridylmethylthio)-N-(3-quinolyl)benzamide]	100
Cc1cc(CSc2ncccc2C(=O)Nc2ccc(OC(F)(F)F)cc2)ccn1 [1-308, 2-(2-Methylpyridin-4-ylmethylthio)-N-(4-trifluoromethoxyphenyl)pyridine-3-carboxamide]	92
CN(C)c1ccc(NC(=O)c2cccnc2SCc2ccncc2)cc1 [1-64, N-(4-Dimethylaminophenyl)-2-(4-pyridylmethylthio)pyridine-3-carboxamide]	100
Cc1cc(NC(=O)c2ccccc2SCc2ccncc2)ccc1Br [1-111, N-(4-Bromo-3-methylphenyl)-2-(4-pyridylmethylthio)benzamide]	100
Cc1cc(C)cc(NC(=O)c2cccnc2SCc2ccnc(C(=O)Nc3ccc(Cl)cc3)c2)c1 [7-2, 2-[2-(4-Chlorophenylaminocarbonyl)pyridin-4-ylmethylthio]-N-(3,5-dimethylphenyl)pyridine-3-carboxamide]	100
CCOC(=O)Cc1ccc(NC(=O)c2cccnc2SCc2ccncc2)cc1 [1-61, N-(4-Ethoxycarbonylmethylphenyl)-2-(4-pyridylmethylthio)pyridine-3-carboxamide]	65
